BindingDB's records for patent US9695132 (Celgene CAR LLC, 2017)

Key:
[1] = target: T1, Fibroblast growth factor receptor 4 (Homo sapiens, UniProt P22455); assay: Omnia Assay; conditions: pH 7.5
Protocol: Omnia Assay Protocol for Potency Assessment Against FGFR 4 Enzyme. a) [FGFR4-WT]=10 nM, [ATP]=300 uM, [Y10-Sox]=10 uM (ATP KMapp 300 uM): A 10x stock solution of FGFR4-WT (PR4380C), (from Invitrogen, Carlsbad, Calif.) corresponding to method a in Table 7, was prepared as described below. Alternatively, a 10x stock solution of FGFR4-WT (F01-11G), (SignalChem, Richmond, BC) corresponding to method b in Table 7, was prepared as described below. A solution of 1.4xATP (AS001A) and 5x Tyr-Sox conjugated peptide substrate (KNZ3101) were prepared in 1x kinase reaction buffer consisting of 20 mM Tris, pH 7.5, 5 mM MgCl2, 1 mM EGTA, 5 mM β-glycerophosphate, 5% glycerol (10x stock, KB002A) and 0.2 mM DTT (DS001A). […] The serially diluted compounds were prepared on a Tecan EVO100. A second addition of 10 ul of Tyr-Sox FGFR4 substrate was added to each well and the kinase reactions were started with the addition of 35 uL of 1.4xATP. The reactions were monitored every 71 seconds for 240 minutes at λex360/λem485 in a Synergy plate reader from BioTek (Winooski, Vt.).

[2] = target: T1, Fibroblast growth factor receptor 4; assay: Omnia Assay; conditions: pH 7.5; remark: listed apart in the source

T1 sequence (P22455 whole entry): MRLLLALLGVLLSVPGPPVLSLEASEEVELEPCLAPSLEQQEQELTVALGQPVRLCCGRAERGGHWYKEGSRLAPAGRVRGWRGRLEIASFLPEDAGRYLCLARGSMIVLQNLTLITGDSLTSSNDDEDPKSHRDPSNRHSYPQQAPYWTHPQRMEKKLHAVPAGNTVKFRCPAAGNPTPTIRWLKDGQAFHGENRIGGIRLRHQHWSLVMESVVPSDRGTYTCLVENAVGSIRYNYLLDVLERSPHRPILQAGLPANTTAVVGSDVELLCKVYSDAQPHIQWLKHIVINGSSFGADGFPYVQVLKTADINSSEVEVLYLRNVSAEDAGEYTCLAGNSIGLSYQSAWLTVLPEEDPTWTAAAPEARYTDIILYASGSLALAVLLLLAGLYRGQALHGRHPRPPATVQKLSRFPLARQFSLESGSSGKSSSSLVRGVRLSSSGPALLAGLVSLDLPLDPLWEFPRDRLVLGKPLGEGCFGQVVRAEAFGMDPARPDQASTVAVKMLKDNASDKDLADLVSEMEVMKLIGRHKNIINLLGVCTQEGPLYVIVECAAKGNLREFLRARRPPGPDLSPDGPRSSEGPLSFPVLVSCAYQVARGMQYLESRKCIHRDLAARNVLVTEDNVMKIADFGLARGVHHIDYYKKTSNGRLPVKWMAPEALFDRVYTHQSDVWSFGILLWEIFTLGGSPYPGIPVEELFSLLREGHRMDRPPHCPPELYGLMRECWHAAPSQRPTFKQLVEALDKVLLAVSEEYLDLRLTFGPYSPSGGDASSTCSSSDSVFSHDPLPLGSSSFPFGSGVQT

SMILES	IC50 [1]	IC50 [2]
C=CC(=O)Nc1cc(N2CCC(C(=O)OC(C)(C)C)CC2)ccc1Nc1ncc2c(n1)N(C)C(=O)N(c1c(Cl)c(OC)cc(OC)c1Cl)C2 [US9695132, I-62]	< 100 nM	–
C=CC(=O)NC1COCC1Nc1ncc2c(n1)N(Cc1c[nH]cn1)C(=O)N(c1c(Cl)c(OC)cc(OC)c1Cl)C2 (centres undefined) [US9695132, I-214]	< 100 nM	–
C=CC(=O)Nc1cccc(Nc2ncc3c(n2)N(Cc2cccc(NC(=O)CC)c2)C(=O)C(c2c(Cl)c(OC)cc(OC)c2Cl)C3)c1 (centres undefined) [US9695132, I-232]	–	< 100 nM
C=CC(=O)Nc1ccc(Nc2ncc3c(n2)N(Cc2cccc(NC(=O)CC)c2)C(=O)C(c2c(Cl)c(OC)cc(OC)c2Cl)C3)cc1 (centres undefined) [US9695132, I-233]	–	< 100 nM
